What was measured:
[1] = test system: aconitin-induced arrhythmia; test: animal or person; details: Mus musculus, ip, read-out: Delay in time of appearance of arrhythmia
[2] = test system: aconitin-induced arrhythmia; details: mouse, in vivo, po, 100 mg/kg
in vivo = details: mouse, ip
[3] = test system: ouabain-induced arrhythmia; test: Ouabain-induced arrhythmia in anaesthetized dogs; type: in vivo
Protocol: Anaesthetized dogs of both sexes were treated intravenously with an infusion of 60 /ug/kg of ouabain to provoke arrhythmia, and the arrhythmic state was maintained with an ouabain dose 60 times less than the initial. In this way a ventricular tachycardia or tachyarrhythmia lasting for more than 180 minutes was provoked. The compounds were tested during this period. The period of recovered normal sinus rhythm was recorded, and when a compound exerted protective effect for more than 30 minutes, this fact was regarded as complete protection. The tests were performed essentially according to the method of Piascik et al. [Can.
Examination of the anti-arrhythmic effect in dogs anaesthetized with a 30
of pentobarbital sodium and treated with ouabain

[4] = test system: barium chloride-induced arrhythmia; test: Barium chloride-induced arrhythmia in awake rabbits; type: in vivo; details: 2 mg/kg
Protocol: The compounds to be tested were administered intravenously to the animals 3 minutes after treating them with barium chloride, and the effect was recorded. It was regarded as a positive protecting effect when the compound suspended the arrhythmic condition for at least 3 minutes.

[5] = test system: fibrillation threshold of the heart; test: Determination of the fibrillation threshold in anaesthetized cats; type: in vivo
Description: The chests of the cats were opened under chloralose-urethane anaesthesia a bipolar stimulating electrode was fixed onto the heart, and the heart was stimulated electrically with a frequency of 20 Hz, under continuously increasing current strength, until a fibrillo-flattern could be observed. This current strength was regarded as the fibrillation threshold of the animal.

left auricle = test: Electrophysiological tests on isolated rabbit heart, left auricle; parameters: species or system rabbits; details: 2 mg/l, average
Protocol: (§1) Heart of rabbits of both sexes, weighing 1-2 kg, were removed, the right and left auricles and a segment of the right ventricle were prepared and placed into a vessel filled with nutrient solution. Bipolar platinum electrodes (a stimulating electrode and a lead electrode) were placed onto the organ strips, and the electric stimulus threshold and the speed of impulse condution were measured. The effective refractory period determined on the basis of the maximum driving frequency.

right ventricle = test: Electrophysiological tests on isolated rabbit heart, right ventricle; parameters: species or system rabbits; details: 2 mg/l, average
Protocol: as §1

[6] = test system: myocardial contractile force, arterial blood pressure and pulse rate; test: Inotropic effects (myocardial contractile force) in anaesthetized cats; type: in vivo; details: i.v.; for Contractility, change: basal 100
Protocol: Cats were anaesthetized with chloralose-urethane, a cannula was lead into the femoral artery, and the cannula was connected, through a Statham P 23 Db pressure sensor, to a Hellige recorder, where the arterial blood pressure and the pulse rate were recorded. The animals were respirated artifically, their chests were opened, and a strain gage was sutured on the left heart. The strain gage was connected to the Hellige recorder, and the variations in cardiac contractile force were recorded. The test compounds were administered to the animals intravenously through a cannula.

[7] = test system: systemic and pulmonary circulation; test: Effects on the systemic and pulmonary circulation of awake cats; type: in vivo; details: i.v., 1.0 mg/kg
Description: Cats were anaesthetized with pentobarbital, and cannulas were placed into the carotis artery and, through the jugular vein, into the pulmonary artery. An additional cannula was placed into the jugular vein for the administration of the test compound. The cannulas were filled up with heparin in order to avoid blood clotting. Thereafter the wounds were sutured, and the cannulas were led below a bandage placed around the neck of the animal. 3 days after this operation the systemic arterial blood pressure, the pulmonary arterial pressure and the pulse rate of the awake animals were measured with a Hellige recorder, connected to the cannulas through a Statham P 23 Db type pressure transducer.

[8] = i.v., 0.5 mg/kg, protection > 30 min = complete
[9] = i.v., 1.0 mg/kg, protection > 30 min = complete
[10] = i.v., 2.0 mg/kg, protection > 30 min = complete
[11] = i.v., 4.0 mg/kg, protection > 30 min = complete
[12] = i.v., 8.0 mg/kg, protection > 30 min = complete
[13] = i.v., arrhythmia suspended for at least 3 minutes

Compound: Cc1cccc(C)c1N(C)CC(C)N(C)C (centres unmarked) [1-[N-methyl-N-(2,6-dimethylphenyl)-amino]-2-dimethylamino-propane]
- change in vivo at 50 mg/kg [1]: 78%

Compound: Cc1cccc(C)c1NCC(C)N (centres unmarked) [1-(2,6-dimethylphenyl-amino)-2-amino-propane]
- Delay in the appearance time of arrhythmia [2]: +27.0%
- LD50 (in vivo): 135 mg/kg
- change in vivo at 25 mg/kg [1]: 17%
- change in vivo at 50 mg/kg [1]: 87.3%
- change in vivo at 100 mg/kg [1]: 124%

Compound: Cc1cccc(C)c1NC(C)CN.Cl.Cl (centres unmarked) [1-Amino-2-(2,6-dimethylphenyl-amino)-propane dihydrochloride]
- Delay in the appearance time of arrhythmia [2]: +41.0%
- LD50 (in vivo): 155 mg/kg
- change in vivo at 25 mg/kg [1]: 16.6%
- change in vivo at 50 mg/kg [1]: 60%
- change in vivo at 100 mg/kg [1]: 127%

Compound: Cc1cccc(C)c1NCCC(C)N (centres unmarked) [1-(2,6-dimethylphenyl-amino)-3-amino-butane]
- Average time of partial suspension ([3]; i.v., 0.5 mg/kg): 0.3 min
- Complete suspension, number of cases [3, 8]: 1/16
- Average time of partial suspension ([3]; i.v., 1.0 mg/kg): 0.8 min
- Complete suspension, number of cases [3, 9]: 1/15
- Average time of partial suspension ([3]; i.v., 2.0 mg/kg): 3.7 min
- Complete suspension, number of cases [3, 10]: 2/15
- Average time of partial suspension ([3]; i.v., 4.0 mg/kg): 5.4 min
- Complete suspension, number of cases [3, 11]: 7/14
- Average time of partial suspension ([3]; i.v., 8.0 mg/kg): 6.5 min
- Complete suspension, number of cases [3, 12]: 3/5
- Protecting effect, number of animals [4, 13]: 5/10
- Effect on the fibrillation threshold ([5]; i.v., 0.5 mg/kg): +2.3%
- Effect on the fibrillation threshold ([5]; i.v., 1.0 mg/kg): +3.0%
- Effect on the fibrillation threshold ([5]; i.v., 2.0 mg/kg): +16.5%
- Effect on the fibrillation threshold ([5]; i.v., 4.0 mg/kg): +52.9%
- Delay in the appearance time of arrhythmia [2]: +84.0%
- change in vivo at 10 mg/kg [1]: 0%
- change in vivo at 25 mg/kg [1]: 48%
- change in vivo at 50 mg/kg [1]: 87%
- change in vivo at 75 mg/kg [1]: 135%

Compound: CCC(N)CNc1c(C)cccc1C (centres unmarked) [1-(2,6-dimethylphenyl-amino)-2-amino-butane]
- Delay in the appearance time of arrhythmia [2]: +33.0%
- change in vivo at 10 mg/kg [1]: 3%
- change in vivo at 25 mg/kg [1]: 40.8%
- change in vivo at 50 mg/kg [1]: 104%
- change in vivo at 75 mg/kg [1]: 149%

Compound: Cc1cccc(C)c1OCC(C)N.Cl (centres unmarked) [1-(2,6-Dimethylphenoxy)-2-aminopropane hydrochloride, reference compound]
- Average time of partial suspension ([3]; dog, in vivo, iv, 0.5 mg/kg): 0.5 min
- Complete suspension, number of cases ([3]; dog, in vivo, iv, 0.5 mg/kg): 1/15
- Average time of partial suspension ([3]; dog, in vivo, iv, 1 mg/kg): 2.6 min
- Complete suspension, number of cases ([3]; dog, in vivo, iv, 1 mg/kg): 1/15
- Average time of partial suspension ([3]; dog, in vivo, iv, 2 mg/kg): 2.9 min
- Complete suspension, number of cases ([3]; dog, in vivo, iv, 2 mg/kg): 3/14
- Average time of partial suspension ([3]; dog, in vivo, iv, 4 mg/kg): 1.4 min
- Complete suspension, number of cases ([3]; dog, in vivo, iv, 4 mg/kg): 4/9
- Average time of partial suspension ([3]; dog, in vivo, iv, 8 mg/kg): 10.3 min
- Complete suspension, number of cases ([3]; dog, in vivo, iv, 8 mg/kg): 2/5
- Protecting effect, number of animals ([4]; rabbit, in vivo, iv): 4/10
- Effect on the fibrillation threshold ([5]; in vivo, iv, 0.5 mg/kg): +9.4%
- Effect on the fibrillation threshold ([5]; in vivo, iv, 1 mg/kg): +12.9%
- Effect on the fibrillation threshold ([5]; in vivo, iv, 2 mg/kg): +24.8%
- Effect on the fibrillation threshold ([5]; in vivo, iv, 4 mg/kg): +34.0%
- Change of the conduction time (left auricle): +24%
- Change of the effective refractory period (left auricle): +32%
- Change of the electric stimulus threshold (left auricle): +36%
- Change of the conduction time (right ventricle): +11%
- Change of the effective refractory period (right ventricle): +28%
- Change of the electric stimulus threshold (right ventricle): +14%
- Arterial blood pressure, change ([6]; 0.5 mg/kg): -45 mmHg
- Pulse/minute, change ([6]; 0.5 mg/kg): -40 min⁻¹
- Contractility, change ([6]; 0.5 mg/kg): -29%
- Arterial blood pressure, change ([6]; 1.0 mg/kg): -40 mmHg
- Pulse/minute, change ([6]; 1.0 mg/kg): -50 min⁻¹
- Contractility, change ([6]; 1.0 mg/kg): -32%
- Arterial blood pressure, change ([6]; 2.0 mg/kg): -60 mmHg
- Pulse/minute, change ([6]; 2.0 mg/kg): -50 min⁻¹
- Contractility, change ([6]; 2.0 mg/kg): -38%
- Arterial blood pressure, change ([6]; 5.0 mg/kg): -65 mmHg
- Pulse/minute, change ([6]; 5.0 mg/kg): -50 min⁻¹
- Contractility, change ([6]; 5.0 mg/kg): -57%
- Pulmonary arterial mean pressure, change ([7]; basal 13): +6 mmHg
- Arterial blood pressure, change ([7]; basal 102): -39 mmHg
- Pulse/minute, change ([7]; basal 190-200): -66 min⁻¹
- Delay in the appearance time of arrhythmia [2]: +82.0%
- change in vivo at 5 mg/kg [1]: 3.5%
- change in vivo at 10 mg/kg [1]: 7.7%
- change in vivo at 25 mg/kg [1]: 33.3%
- change in vivo at 50 mg/kg [1]: 83.1%
- change in vivo at 75 mg/kg [1]: 162%

Compound: CCN(CC)CC(=O)Nc1c(C)cccc1C.Cl [N-(diethylamino-acetyl)-2,6-dimethylaniline hydrochloride, reference compound]
- Average time of partial suspension ([3]; i.v., 0.5 mg/kg): 0.5 min
- Complete suspension, number of cases [3, 8]: 0/15
- Average time of partial suspension ([3]; i.v., 1.0 mg/kg): 1.6 min
- Complete suspension, number of cases [3, 9]: 0/15
- Average time of partial suspension ([3]; i.v., 2.0 mg/kg): 2.5 min
- Complete suspension, number of cases [3, 10]: 1/15
- Average time of partial suspension ([3]; i.v., 4.0 mg/kg): 2.5 min
- Complete suspension, number of cases [3, 11]: 3/14
- Average time of partial suspension ([3]; i.v., 8.0 mg/kg): 7.5 min
- Complete suspension, number of cases [3, 12]: 2/11
- Protecting effect, number of animals [4, 13]: 2/10
- Effect on the fibrillation threshold ([5]; i.v., 0.5 mg/kg): 0%
- Effect on the fibrillation threshold ([5]; i.v., 1.0 mg/kg): +2.0%
- Effect on the fibrillation threshold ([5]; i.v., 2.0 mg/kg): +17.7%
- Effect on the fibrillation threshold ([5]; i.v., 4.0 mg/kg): +39.1%
- Delay in the appearance time of arrhythmia [2]: +38.0%
- change in vivo at 5 mg/kg [1]: 1%
- change in vivo at 10 mg/kg [1]: 16.2%
- change in vivo at 25 mg/kg [1]: 33.7%
- change in vivo at 40 mg/kg [1]: 70.1%

Source: patent US4922021A, “New alkylene diamine derivatives” (BASF Aktiensellschaft, priority 1981, dated 1990)
